Measured values reported in PubChem BioAssay AID2060604 (Molecular Pharmacology Branch, DTP, NCI, 2025).
pIC50: −log10 of the molar value.

Test system: 379773-124-R-J2-PDC complex spheroids, viability % test/control
Experiment: Anticancer human tumor 379773-124-R-J2-PDC patient-derived endometrial carcinoma cell line growth inhibition [CLK]
Conditions: for pIC50: curve of first compound; for viability, T/C: stronger effect = lower value; active = viability on the fitted dose curve at most 10% of control; inactive = the rest
Outline: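 Multi-cell-type spheroids combined patient-derived tumor cells with HUVEC endothelial cells and human mesenchymal stem cells. Paired agents were dosed in half-log steps down from about clinical Cmax, or from 10 microM where Cmax was unknown.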
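Also: compound exposure lasted seven days before the viability readout.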
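For viability, T/C in this document: 100% = DMSO vehicle control wells.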

NC(=O)C(=Cn1cnc(-c2cc(C(F)(F)F)cc(C(F)(F)F)c2)n1)c1cncnc1 + CN1CCN(c2cc(C(=O)Nc3cc4cc(-c5cnn(C)c5)ccc4cn3)ccn2)CC1
active: viability, T/C (second compound 0.0316 µM, first compound 3 µM) 5.29% | viability, T/C (second compound 0.1 µM, first compound 0.949 µM) 8.03% | viability, T/C (second compound 0.1 µM, first compound 3 µM) 2.96% | viability, T/C (second compound 0.316 µM, first compound 0.0949 µM) 7.32% | viability, T/C (second compound 0.316 µM, first compound 0.3 µM) 3.49% | viability, T/C (second compound 0.316 µM, first compound 0.949 µM) 1.06% | viability, T/C (second compound 0.316 µM, first compound 3 µM) 0.04% | viability, T/C (second compound 1 µM, first compound 0.00949 µM) 0.1% | viability, T/C (second compound 1 µM, first compound 0.03 µM) 0.12% | viability, T/C (second compound 1 µM, first compound 0.0949 µM) 0.3% | viability, T/C (second compound 1 µM, first compound 0.3 µM) 0.14% | viability, T/C (second compound 1 µM, first compound 0.949 µM) 1.96% | viability, T/C (second compound 1 µM, first compound 3 µM) 0.06% | viability, T/C (second compound 3.16 µM, first compound 0.00949 µM) 2.45% | viability, T/C (second compound 3.16 µM, first compound 0.03 µM) 0.72% | viability, T/C (second compound 3.16 µM, first compound 0.0949 µM) 0.44% | viability, T/C (second compound 3.16 µM, first compound 0.3 µM) 0.13% | viability, T/C (second compound 3.16 µM, first compound 0.949 µM) 0.11% | viability, T/C (second compound 3.16 µM, first compound 3 µM) 0.11% | viability, T/C (second compound 10 µM, first compound 0.00949 µM) 0.45% | viability, T/C (second compound 10 µM, first compound 0.03 µM) 0.13% | viability, T/C (second compound 10 µM, first compound 0.0949 µM) 1.03% | viability, T/C (second compound 10 µM, first compound 0.3 µM) 0.18% | viability, T/C (second compound 10 µM, first compound 0.949 µM) 0.19% | viability, T/C (second compound 10 µM, first compound 3 µM) 0.17%
> 8.02: pIC50 (second compound 0.316 µM) | pIC50 (second compound 1 µM) | pIC50 (second compound 3.16 µM) | pIC50 (second compound 10 µM)
7.23: pIC50 (second compound 0.0316 µM)
inactive: viability, T/C (second compound 0.0316 µM, first compound 0.00949 µM) 84.8% | viability, T/C (second compound 0.0316 µM, first compound 0.03 µM) 64.5% | viability, T/C (second compound 0.0316 µM, first compound 0.0949 µM) 39.2% | viability, T/C (second compound 0.0316 µM, first compound 0.3 µM) 22.6% | viability, T/C (second compound 0.0316 µM, first compound 0.949 µM) 11.4% | viability, T/C (second compound 0.1 µM, first compound 0.00949 µM) 60.4% | viability, T/C (second compound 0.1 µM, first compound 0.03 µM) 57.7% | viability, T/C (second compound 0.1 µM, first compound 0.0949 µM) 39.9% | viability, T/C (second compound 0.1 µM, first compound 0.3 µM) 17.9% | viability, T/C (second compound 0.316 µM, first compound 0.00949 µM) 16.4% | viability, T/C (second compound 0.316 µM, first compound 0.03 µM) 14.8%
7.32: pIC50 (second compound 0.1 µM)

Nc1ccccc1NC(=O)c1ccc(CNC(=O)OCc2cccnc2)cc1 + CN1CCN(c2cc(C(=O)Nc3cc4cc(-c5cnn(C)c5)ccc4cn3)ccn2)CC1
5.51: pIC50 (second compound 0.0316 µM)
active: viability, T/C (second compound 0.1 µM, first compound 10 µM) 5.29% | viability, T/C (second compound 0.316 µM, first compound 3.16 µM) 4.61% | viability, T/C (second compound 0.316 µM, first compound 10 µM) 0.06% | viability, T/C (second compound 1 µM, first compound 0.0316 µM) 0.13% | viability, T/C (second compound 1 µM, first compound 0.1 µM) 0.25% | viability, T/C (second compound 1 µM, first compound 0.316 µM) 0.3% | viability, T/C (second compound 1 µM, first compound 1 µM) 1.14% | viability, T/C (second compound 1 µM, first compound 3.16 µM) 0.04% | viability, T/C (second compound 1 µM, first compound 10 µM) 0.92% | viability, T/C (second compound 3.16 µM, first compound 0.0316 µM) 0.08% | viability, T/C (second compound 3.16 µM, first compound 0.1 µM) 0.1% | viability, T/C (second compound 3.16 µM, first compound 0.316 µM) 0.08% | viability, T/C (second compound 3.16 µM, first compound 1 µM) 1.25% | viability, T/C (second compound 3.16 µM, first compound 3.16 µM) 0.1% | viability, T/C (second compound 3.16 µM, first compound 10 µM) 0.09% | viability, T/C (second compound 10 µM, first compound 0.0316 µM) 0.15% | viability, T/C (second compound 10 µM, first compound 0.1 µM) 0.81% | viability, T/C (second compound 10 µM, first compound 0.316 µM) 0.62% | viability, T/C (second compound 10 µM, first compound 1 µM) 1.15% | viability, T/C (second compound 10 µM, first compound 3.16 µM) 1.4% | viability, T/C (second compound 10 µM, first compound 10 µM) 0.15%
5.71: pIC50 (second compound 0.1 µM)
> 7.50: pIC50 (second compound 0.316 µM) | pIC50 (second compound 1 µM) | pIC50 (second compound 3.16 µM) | pIC50 (second compound 10 µM)
inactive: viability, T/C (second compound 0.0316 µM, first compound 0.0316 µM) 89.8% | viability, T/C (second compound 0.0316 µM, first compound 0.1 µM) 92.6% | viability, T/C (second compound 0.0316 µM, first compound 0.316 µM) 113% | viability, T/C (second compound 0.0316 µM, first compound 1 µM) 104% | viability, T/C (second compound 0.0316 µM, first compound 3.16 µM) 49.1% | viability, T/C (second compound 0.0316 µM, first compound 10 µM) 10.4% | viability, T/C (second compound 0.1 µM, first compound 0.0316 µM) 82.2% | viability, T/C (second compound 0.1 µM, first compound 0.1 µM) 81% | viability, T/C (second compound 0.1 µM, first compound 0.316 µM) 111% | viability, T/C (second compound 0.1 µM, first compound 1 µM) 66.2% | viability, T/C (second compound 0.1 µM, first compound 3.16 µM) 36% | viability, T/C (second compound 0.316 µM, first compound 0.0316 µM) 21.2% | viability, T/C (second compound 0.316 µM, first compound 0.1 µM) 27.6% | viability, T/C (second compound 0.316 µM, first compound 0.316 µM) 17.5% | viability, T/C (second compound 0.316 µM, first compound 1 µM) 13.2%
